Assay results from publication PMC8904767, “Engineering an acetoacetyl-CoA reductase from Cupriavidus necator toward NADH preference under physiological conditions” (Scientific Reports, 2022).

B1: AAR^Cn1 (acetoacetyl-CoA reductase encoded by phaB1) (Cupriavidus necator H16) (protein)
chain: MTQRIAYVTGGMGGIGTAICQRLAKDGFRVVAGCGPNSPRREKWLEQQKALGFDFIASEGNVADWDSTKTAFDKVKSEVGEVDVLINNAGITRDVVFRKMTRADWDAVIDTNLTSLFNVTKQVIDGMADRGWGRIVNISSVNGQKGQFGQTNYSTAKAGLHGFTMALAQEVATKGVTVNTVSPGYIATDMVKAIRQDVLDKIVATIPVKRLGLPEEIASICAWLSSEESGFSTGADFSLNGGLHMG
notes: recombinant, expressed in E. coli BL21(DE3), purified by IMAC

Columns and labels:
[1] = target: T1, Chimera 1 backbone (Chimera 2, Chimera 3, Chimera 4) (Cupriavidus necator, UniProt P14697, N37E/S38A/R40K/R41P, form not given); experiment: reaction progress curve analysis, absorbance […] nm; assay type: biochemical; details: AcAcCoA 2 mM, MOPS 50 mM, NaCl 5 mM, MgCl2 5 mM, pH 7.0, 30 °C, apparent kcat, read-out: Chimera3
T1 construct: gene phaB; AAR^Cn1 with N37-R41 replaced by E37-P41 of AAR^CAp (E37, F38, K40, P41 told in text); E. coli BL21(DE3), IMAC

[2] = target: T2, Chimera 1 backbone (Chimera 2, Chimera 3, Chimera 4) (Cupriavidus necator, UniProt P14697, N37E/S38E/R40Q/R41P, form not given); experiment: as above; assay type: biochemical; details: AcAcCoA 2 mM, MOPS 50 mM, NaCl 5 mM, MgCl2 5 mM, pH 7.0, 30 °C, apparent kcat, read-out: Chimera4
T2 construct: gene phaB; AAR^Cn1 with N37-R41 replaced by E37-P41 of AAR^CAp (E37, F38, K40, P41 told in text); E. coli BL21(DE3), IMAC

[3] = target: T3, Chimera 1 backbone (Chimera 2, Chimera 3, Chimera 4) (Cupriavidus necator, UniProt P14697, N37E/S38F/R40K/R41G, form not given); experiment: as above; assay type: biochemical; details: AcAcCoA 2 mM, MOPS 50 mM, NaCl 5 mM, MgCl2 5 mM, pH 7.0, 30 °C, apparent kcat, read-out: Chimera2
T3 construct: gene phaB; AAR^Cn1 with N37-R41 replaced by E37-P41 of AAR^CAp (E37, F38, K40, P41 told in text); E. coli BL21(DE3), IMAC

Chimera 5 [4] = target: T4, Chimera 5 (Cupriavidus necator, UniProt P14697, G33A/N37E/S38F/R40K/R41P/E46K, form not given); experiment: as above; assay type: biochemical; details: AcAcCoA 2 mM; MOPS 50 mM, NaCl 5 mM, MgCl2 5 mM, pH 7.0, 30 °C; apparent kcat; read-out: Chimera5
T4 construct: gene phaB; AAR^Cn1 with segment G33-E46 replaced by A33-K46 of AAR^CAp (residues 36 and 44 conserved); E. coli BL21(DE3), IMAC

Chimera 5 [5] = target: T4, Chimera 5; experiment: initial rates and reaction progress curves, global fit; assay type: biochemical; details: MOPS 50 mM, NaCl 5 mM, MgCl2 5 mM, pH 7.0, 30 °C
Description: initial rates and reaction progress curves, global fit on Chimera 5

purified protein [6] = substrate: NC(=O)C1=CN([C@@H]2O[C@H](COP(=O)(O)OP(=O)(O)OC[C@H]3O[C@@H](n4cnc5c(N)ncnc54)[C@H](O)[C@@H]3O)[C@@H](O)[C@H]2O)C=CC1; experiment: purified protein; assay type: biochemical, Cupriavidus necator; details: AcAcCoA 2 mM, MOPS 50 mM, NaCl 5 mM, MgCl2 5 mM, pH 7.0, 30 °C, apparent kcat, varied: cofactor
purified protein [7] = substrate: NC(=O)C1=CN([C@@H]2O[C@H](COP(=O)(O)OP(=O)(O)OC[C@H]3O[C@@H](n4cnc5c(N)ncnc54)[C@H](OP(=O)(O)O)[C@@H]3O)[C@@H](O)[C@H]2O)C=CC1; experiment: purified protein; assay type: biochemical, Cupriavidus necator; details: AcAcCoA 2 mM, MOPS 50 mM, NaCl 5 mM, MgCl2 5 mM, pH 7.0, 30 °C, apparent kcat, varied: cofactor

T4 sequence (P14697 whole entry G33A/N37E/S38F/R40K/R41P/E46K, form open): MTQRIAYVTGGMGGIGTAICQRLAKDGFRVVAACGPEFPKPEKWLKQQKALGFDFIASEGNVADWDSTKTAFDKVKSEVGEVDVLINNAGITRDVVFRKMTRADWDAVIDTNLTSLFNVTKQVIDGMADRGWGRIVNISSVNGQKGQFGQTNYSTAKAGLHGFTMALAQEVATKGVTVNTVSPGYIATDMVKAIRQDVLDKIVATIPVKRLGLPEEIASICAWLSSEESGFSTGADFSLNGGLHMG
T1 sequence (P14697 whole entry N37E/S38A/R40K/R41P, form open): as the sequence (P14697 whole entry G33A/N37E/S38F/R40K/R41P/E46K, form open) above, with A33G, F38A, K46E counted along it
T2 sequence (P14697 whole entry N37E/S38E/R40Q/R41P, form open): as the sequence (P14697 whole entry G33A/N37E/S38F/R40K/R41P/E46K, form open) above, with A33G, F38E, K40Q, K46E counted along it
T3 sequence (P14697 whole entry N37E/S38F/R40K/R41G, form open): as the sequence (P14697 whole entry G33A/N37E/S38F/R40K/R41P/E46K, form open) above, with A33G, P41G, K46E counted along it

| Molecule | Km [1] [µM] | Km [2] [µM] | Km [3] [µM] | Km (Chimera 5 [4]) [µM] | further results |
| --- | --- | --- | --- | --- | --- |
| NC(=O)C1=CN([C@@H]2O[C@H](COP(=O)(O)OP(=O)(O)OC[C@H]3O[C@@H](n4cnc5c(N)ncnc54)[C@H](O)[C@@H]3O)[C@@H](O)[C@H]2O)C=CC1 [NADH] | 886 | 618 | 140 | 43 |  |
| NC(=O)C1=CN([C@@H]2O[C@H](COP(=O)(O)OP(=O)(O)OC[C@H]3O[C@@H](n4cnc5c(N)ncnc54)[C@H](OP(=O)(O)O)[C@@H]3O)[C@@H](O)[C@H]2O)C=CC1 [NADPH] | 1750 | 120 | 1120 | 2790 |  |
| CC(=O)CC(=O)SCCNC(=O)CCNC(=O)[C@H](O)C(C)(C)COP(=O)(O)OP(=O)(O)OC[C@H]1O[C@@H](n2cnc3c(N)ncnc32)[C@H](O)[C@@H]1OP(=O)(O)O [AcAcCoA] |  |  |  |  | Km (Chimera 5 [5]; NADH 1 mM, substrate inhibition model with KiS = KM): 50 µM; NADPH (Chimera 5 [5]; substrate inhibition, second site, NADPH 1 mM): 324 [195–465] µM |
| B1 |  |  |  |  | Km (purified protein [6]): 819 [688–975] µM; kcat (purified protein [6]): 10.3 s⁻¹; kcat/Km (purified protein [6]): 13000 M⁻¹ s⁻¹; Km (purified protein [7]): 44 [40–49] µM; kcat (purified protein [7]): 5.2 s⁻¹; kcat/Km (purified protein [7]): 118000 M⁻¹ s⁻¹ |
